Laboratory results reported in patent US20200306295A1, “METHOD AND DEVICE FOR ANNIHILATION OF Staphylococcus aureus” (priority 2017, published 2020).

Test system: 200 kinds of cytokines
Test: Fold change of 200 cytokines in homogenized wound tissue
Format: in vivo, Balb/c mice
Source text: To quantify the physiological condition of the wound tissues, we measured the concentrations of 200 kinds of cytokines (Table. 1) from the supernatant of homogenized tissue solution. Cytokines are small secreted proteins released by cells and have specific effect on the interactions and communications between cells (25).
To initiate the formation of a skin wound, five groups (n=5) of eight-week old female Balb/c mice (obtained from Harlan Laboratories, Indianapolis, Ind., USA) were disinfected with ethanol (70%) and shaved on the middle of the back (approximately a one-inch by one-inch square region around the injection site) one day prior to infection as described from a reported procedure (3). To prepare the bacterial inoculum, an aliquot of overnight culture of MRSA USA300 was transferred to fresh Tryptic soy broth and shaken at 37° C. until an OD600 value of ˜1.0 was achieved. The cells were centrifuged, washed once with PBS, re-centrifuged, and then re-suspended in PBS. Mice subsequently received an intradermal injection (40 μL) containing 2.40×10^9 CFU/mL MRSA USA300.
One group of mice was left untreated (negative control). Each group of mice receiving a particular treatment regimen was housed separately in a ventilated cage with appropriate bedding, food, and water. […] Mice were treated twice daily (once every 12 hours) for three days, before they were humanely euthanized via CO2 asphyxiation 12 hours after the last dose was administered. The region around the skin wound was lightly swabbed with ethanol (70%) and excised. The tissue was subsequently homogenized in PBS. The homogenized tissue was then serially diluted in PBS before plating onto mannitol salt agar plates. Plates were incubated for at least 19 hours at 37° C. before viable MRSA CFU/mL were counted for each group. Outlier was removed based upon the Dixon Q Test.

CC(=O)O[C@H]1C[C@@]2(C)[C@@H](C[C@@H](O)[C@H]3[C@@]4(C)CC[C@@H](O)[C@@H](C)[C@@H]4CC[C@@]32C)/C1=C(\CCC=C(C)C)C(=O)O [fusidic acid]
fold change of MBL-2 (mean) (cytokine MBL-2, group mean, wound tissue of MRSA-infected mice): 0.0893
fold change of Meteorin (mean) (cytokine Meteorin, group mean, wound tissue of MRSA-infected mice): 0.3361
fold change of NOV (mean) (cytokine NOV, group mean, wound tissue of MRSA-infected mice): −0.2053
fold change of Nope (mean) (cytokine Nope, group mean, wound tissue of MRSA-infected mice): 0.0534
fold change of OX40 Ligand (mean) (cytokine OX40 Ligand, group mean, wound tissue of MRSA-infected mice): −0.1454
fold change of Osteoactivin (mean) (cytokine Osteoactivin, group mean, wound tissue of MRSA-infected mice): 1.1132
fold change of P-Cadherin (mean) (cytokine P-Cadherin, group mean, wound tissue of MRSA-infected mice): 0.5883
fold change of Periostin (mean) (cytokine Periostin, group mean, wound tissue of MRSA-infected mice): 0.1651
fold change of PlGF-2 (mean) (cytokine PlGF-2, group mean, wound tissue of MRSA-infected mice): −0.0798
fold change of Progranulin (mean) (cytokine Progranulin, group mean, wound tissue of MRSA-infected mice): −0.4424
fold change of Prostasin (mean) (cytokine Prostasin, group mean, wound tissue of MRSA-infected mice): 0.1030
fold change of Renin 1 (mean) (cytokine Renin 1, group mean, wound tissue of MRSA-infected mice): −0.4138
fold change of TIM-1 (mean) (cytokine TIM-1, group mean, wound tissue of MRSA-infected mice): −0.0806
fold change of Testican 3 (mean) (cytokine Testican 3, group mean, wound tissue of MRSA-infected mice): −0.4097
fold change of Tryptase ε (mean) (cytokine Tryptase ε, group mean, wound tissue of MRSA-infected mice): −0.0627
share of 200 cytokines with negative fold change vs untreated (fusidic acid alone): around 50%
fold change of 4-1BB (mean, wound tissue): −0.0924
fold change of 6Ckine (mean, wound tissue): 0.0930
fold change of ACE (mean, wound tissue): −0.3271
fold change of ADAMTS1 (mean, wound tissue): 0.2350
fold change of ALK-1 (mean, wound tissue): −0.0491
fold change of ANG-3 (mean, wound tissue): 0.0313
fold change of ANGPTL3 (mean, wound tissue): −0.2231
fold change of AR (mean, wound tissue): 0.6274
fold change of Activin A (mean, wound tissue): 0.2305
fold change of Adiponen (mean, wound tissue): 0.0147
fold change of Artemin (mean, wound tissue): 0.4218
fold change of Axl (mean, wound tissue): 0.0523
fold change of B7-1 (mean, wound tissue): −0.0561
fold change of BAFF R (mean, wound tissue): 0.0687
fold change of BLC (mean, wound tissue): −0.3200
fold change of BTC (mean, wound tissue): 3.8576
fold change of C5a (mean, wound tissue): 0.1215
fold change of CCL6 (mean, wound tissue): −0.4027
fold change of CCL28 (mean, wound tissue): 1.0791
fold change of CD6 (mean, wound tissue): 0.3476
fold change of CD27 (mean, wound tissue): 0.2818
fold change of CD27L (mean, wound tissue): −0.0491
fold change of CD30 (mean, wound tissue): 0.0137
fold change of CD30L (mean, wound tissue): −0.0682
fold change of CD36 (mean, wound tissue): 0.0674
fold change of CD40 (mean, wound tissue): 0.3337
fold change of CD40L (mean, wound tissue): 0.0244
fold change of CD48 (mean, wound tissue): −0.0498
fold change of CRP (mean, wound tissue): −0.0863
fold change of CT-1 (mean, wound tissue): −0.0581
fold change of CTLA4 (mean, wound tissue): 0.2149
fold change of CXCL16 (mean, wound tissue): 0.2447
fold change of Chemerin (mean, wound tissue): 0.1948
fold change of Chordin (mean, wound tissue): −0.0599
fold change of Clusterin (mean, wound tissue): 0.2455
fold change of Cystatin C (mean, wound tissue): −0.0271
fold change of DLL4 (mean, wound tissue): −0.0252
fold change of Decorin (mean, wound tissue): −0.0222
fold change of Dkk-1 (mean, wound tissue): 0.1157
fold change of Dtk (mean, wound tissue): 0.1217
fold change of E-Cadherin (mean, wound tissue): 0.1848
fold change of E-selectin (mean, wound tissue): −0.2004
fold change of EDAR (mean, wound tissue): −0.4592
fold change of EGF (mean, wound tissue): 0.0517
fold change of Endocan (mean, wound tissue): 0.0559
fold change of Endoglin (mean, wound tissue): 0.4267
fold change of Eotaxin (mean, wound tissue): 0.8019
fold change of Eotaxin-2 (mean, wound tissue): 0.0292
fold change of Epigen (mean, wound tissue): −0.0490
fold change of Epiregulin (mean, wound tissue): −0.2220
fold change of Fas (mean, wound tissue): 0.0163
fold change of Fas L (mean, wound tissue): −0.4112
fold change of Fcg RIIB (mean, wound tissue): 0.0602
fold change of Fetuin A (mean, wound tissue): −0.6614
fold change of Flt-3L (mean, wound tissue): 0.1619
fold change of Fractalkine (mean, wound tissue): −0.2364
fold change of G-CSF (mean, wound tissue): 0.1394
fold change of GITR (mean, wound tissue): 0.3966
fold change of GITR L (mean, wound tissue): 0.2327
fold change of GM-CSF (mean, wound tissue): −0.1708
fold change of Galectin-1 (mean, wound tissue): 0.0284
fold change of Galectin-3 (mean, wound tissue): 0.0624
fold change of Galectin-7 (mean, wound tissue): 0.7990
fold change of Gas 1 (mean, wound tissue): 0.0715
fold change of Gas 6 (mean, wound tissue): −0.0661
fold change of Granzyme B (mean, wound tissue): 0.5603
fold change of Gremlin (mean, wound tissue): 4.9707
fold change of H60 (mean, wound tissue): 0.2171
fold change of HAI-1 (mean, wound tissue): 0.2271
fold change of HGF (mean, wound tissue): 0.2701
fold change of HGF R (mean, wound tissue): 0.0292
fold change of I-TAC (mean, wound tissue): 0.3744
fold change of ICAM-1 (mean, wound tissue): 1.5512
fold change of IFNg (mean, wound tissue): −0.0599
fold change of IFNg R1 (mean, wound tissue): 0.0709
fold change of IGF-1 (mean, wound tissue): −0.4445
fold change of IGFBP-2 (mean, wound tissue): −0.0879
fold change of IGFBP-3 (mean, wound tissue): −0.2120
fold change of IGFBP-5 (mean, wound tissue): −0.0782
fold change of IGFBP-6 (mean, wound tissue): −0.2897
fold change of IL-1 R4 (mean, wound tissue): −0.0208
fold change of IL-1a (mean, wound tissue): −0.0503
fold change of IL-1b (mean, wound tissue): −0.2158
fold change of IL-1ra (mean, wound tissue): 0.3851
fold change of IL-2 (mean, wound tissue): 0.0606
fold change of IL-2 Ra (mean, wound tissue): 0.1879
fold change of IL-3 (mean, wound tissue): −0.1398
fold change of IL-3 Rb (mean, wound tissue): 0.0789
fold change of IL-4 (mean, wound tissue): −0.0096
fold change of IL-5 (mean, wound tissue): −0.0953
fold change of IL-6 (mean, wound tissue): 0.2682
fold change of IL-7 (mean, wound tissue): 0.1116
fold change of IL-7 Ra (mean, wound tissue): −0.7276
fold change of IL-9 (mean, wound tissue): 0.1408
fold change of IL-10 (mean, wound tissue): −0.0351
fold change of IL-12p40 (mean, wound tissue): 0.0324
fold change of IL-12p70 (mean, wound tissue): 0.0029
fold change of IL-13 (mean, wound tissue): −0.5654
fold change of IL-15 (mean, wound tissue): −0.0506
fold change of IL-17 (mean, wound tissue): 0.2684
fold change of IL-17B (mean, wound tissue): −0.0513
fold change of IL-17B R (mean, wound tissue): 0.4884
fold change of IL-17E (mean, wound tissue): −0.1800
fold change of IL-17F (mean, wound tissue): 0.2592
fold change of IL-20 (mean, wound tissue): 0.0953
fold change of IL-21 (mean, wound tissue): −0.4052
fold change of IL-22 (mean, wound tissue): −0.0487
fold change of IL-23 (mean, wound tissue): 0.2627
fold change of IL-28 (mean, wound tissue): −0.1588
fold change of IL-33 (mean, wound tissue): 0.3416
fold change of JAM-A (mean, wound tissue): 0.3062
fold change of KC (mean, wound tissue): 0.0909
fold change of Kremen-1 (mean, wound tissue): 0.2672
fold change of L-Selectin (mean, wound tissue): −0.3559
fold change of LIX (mean, wound tissue): −0.0313
fold change of LOX-1 (mean, wound tissue): 0.0568
fold change of Leptin (mean, wound tissue): −0.1199
fold change of Leptin R (mean, wound tissue): 0.1134
fold change of Limitin (mean, wound tissue): −0.1844
fold change of Lipocalin-2 (mean, wound tissue): −0.0695
fold change of Lungkine (mean, wound tissue): −0.0819
fold change of Lymphotactin (mean, wound tissue): 0.0908
fold change of MCP-1 (mean, wound tissue): 0.0071
fold change of MCP-5 (mean, wound tissue): −0.0915
fold change of MCSF (mean, wound tissue): −0.5503
fold change of MDC (mean, wound tissue): −0.0764
fold change of MFG-E8 (mean, wound tissue): 0.4647
fold change of MIG (mean, wound tissue): 0.5378
fold change of MIP-1a (mean, wound tissue): −0.3165
fold change of MIP-1b (mean, wound tissue): −0.5769
fold change of MIP-1g (mean, wound tissue): 0.0304
fold change of MIP-2 (mean, wound tissue): −0.0070
fold change of MIP-3a (mean, wound tissue): 0.3460
fold change of MIP-3b (mean, wound tissue): 0.0690
fold change of MMP-2 (mean, wound tissue): 0.1026
fold change of MMP-3 (mean, wound tissue): −0.1230
fold change of MMP-10 (mean, wound tissue): 0.3470
fold change of MadCAM-1 (mean, wound tissue): −0.0787
fold change of Marapsin (mean, wound tissue): −0.1703
fold change of Neprilysin (mean, wound tissue): 0.5936
fold change of OPG (mean, wound tissue): 0.9914
fold change of OPN (mean, wound tissue): 0.8216
fold change of P-selectin (mean, wound tissue): −0.2374
fold change of PDGF-AA (mean, wound tissue): 0.4578
fold change of PF4 (mean, wound tissue): −0.6256
fold change of Pentraxin 3 (mean, wound tissue): −0.6735
fold change of Persephin (mean, wound tissue): 0.5348
fold change of Pro-MMP-9 (mean, wound tissue): 0.0197
fold change of Prolactin (mean, wound tissue): 0.4580
fold change of RAGE (mean, wound tissue): 0.1727
fold change of RANTES (mean, wound tissue): −0.2545
fold change of Resistin (mean, wound tissue): 0.2752
fold change of SCF (mean, wound tissue): 0.1498
fold change of SDF-1a (mean, wound tissue): 0.1707
fold change of SLAM (mean, wound tissue): 0.1871
fold change of Shh-N (mean, wound tissue): −0.0849
fold change of TACI (mean, wound tissue): 0.4640
fold change of TARC (mean, wound tissue): 0.3205
fold change of TCA-3 (mean, wound tissue): −0.1264
fold change of TCK-1 (mean, wound tissue): −0.0185
fold change of TECK (mean, wound tissue): 0.4529
fold change of TGFb1 (mean, wound tissue): 0.0743
fold change of TNF RI (mean, wound tissue): −0.1306
fold change of TNF RII (mean, wound tissue): −0.2811
fold change of TNFα (mean, wound tissue): −0.4306
fold change of TPO (mean, wound tissue): 0.2663
fold change of TRANCE (mean, wound tissue): 0.0310
fold change of TREM-1 (mean, wound tissue): 0.0981
fold change of TROY (mean, wound tissue): 0.0517
fold change of TSLP (mean, wound tissue): −0.0086
fold change of TWEAK (mean, wound tissue): −0.0621
fold change of TWEAK R (mean, wound tissue): −0.2341
fold change of TremL1 (mean, wound tissue): −0.0440
fold change of VCAM-1 (mean, wound tissue): −0.0283
fold change of VEGF (mean, wound tissue): 0.0403
fold change of VEGF R1 (mean, wound tissue): 0.1580
fold change of VEGF R3 (mean, wound tissue): 0.1061
fold change of VEGF-B (mean, wound tissue): 0.0230
fold change of VEGF-D (mean, wound tissue): 0.0367
fold change of bFGF (mean, wound tissue): −0.4981
fold change of gp130 (mean, wound tissue): 0.5867
fold change of sFRP-3 (mean, wound tissue): 0.0607
